In patent US20130005802A1, “TREATMENT OF WNT/FRIZZLED-RELATED DISEASES” (priority 2009, published 2013):
Like-named read-outs stand apart in the source and are kept apart here.

Experiments:
β-catenin = assay: Immunoblot of Wnt3A-stimulated β-catenin stabilization in U2OS cells; assay type: cell-based
Text: (§1) After treatment, cytosolic fraction as well as cellular membrane were isolated as described (Mikels, A. J., et al. PLoS Biol 2006, 4, e115, incorporated herein by reference in its entirety). Immunoblots using β-catenin or Dishevelled-2 antibody were used to detect the respective protein levels in cytosol or on membrane, with β-actin immunoblots used for loading controls.
The accumulation of cytosolic β-catenin is a measure of canonical Wnt signaling (Mikels, A. J., and Nusse, R. PLoS Biol 2006, 4, e115, incorporated herein by reference).

CRC119 tumor cells = assay: Flow-based cytotoxicity assay (annexin V), CRC119; assay type: cell-based; settings: 3 days, 0.2-20 μM
Experimental: After 3 days incubation, all cells were harvested with 0.05% trypsin/EDTA and spun down by centrifugation. Cells were labeled with biotin-conjugated Annexin V, and then stained with 7-AAD and Streptavidin-APC. Samples were acquired by FACSCalibur machine (BD Bioscience) and analyzed with CellQuest software. Cells were analyzed for expression of Annexin V as a marker of apoptosis.
Annexin V may be used as a marker for apoptosis and other forms of cell death. […] After 3 days of incubation, all cells were harvested with 0.05% trypsin/EDTA, labeled with biotin-conjugated Annexin V, and then stained with 7-AAD and streptavidin-APC. Samples were acquired by FACSCalibur, and percentages of annexin V-positive cells were analyzed and plotted as shown in FIG. 11. Cells were analyzed for expression of Annexin V as a marker of apoptosis.

Frizzled1-GFP = Frizzled1-GFP (Rattus norvegicus, UniProt Q08463); assay: Image-based Frizzled1-GFP internalization assay (primary screening assay) in Fzd1GFP-U2OS cells; assay type: cell-based; settings: 6 hr, 0.47-7.5 μM tested
Experimental: (§2) To obtain a Frizzled1-GFP stable cell line (Fzd1GFP-U2OS), U2OS cells were transfected with pCS2ratFrizzled1-GFP and pLKO.1 (10:1 ratio by weight), using the Nucleofection transfection protocol from Amaxa, and stable receptor expressing clones were selected using 1.5 μg/mL puromycin in the culture medium. For generating TOPFlash stable cell lines, HEK293 cells were transfected with p8xTOPFlash, the Renilla luciferase plasmid, and pLKO.1 at a ratio by weight of 10:3:1 and stable clones selected using 1 μg/mL puromycin in the growth medium. pLKO.1 was used to confer puromycin resistance to the stable clones.
The plates were incubated overnight at 37° C. in 5% CO2. […]
To measure the number of the internalized vesicles per cell, cytosol was carefully traced to exclude cell membrane. […] The number of internalized vesicles per cell was counted by the Metamorph software. More than 30 cells per sample were analyzed to obtain statistical significance. […]
To determine the time-course of internalization for Frizzled1-GFP receptors, the accumulation of cytosolic puncta/vesicles was measured (FIG. 4A-4E). Internalization was assessed by counting the number of Frizzled1-GFP containing vesicles in the cytosol using the computer program Metamorph, and the results are presented in the graph for the given times (0 hr, n=51 cells; 1 hr, n=69; 2 hr, n=32; 4 hr, n=55, and 6 hr, n=61). […]

Dishevelled-2 = assay: Immunoblot of endogenous cytosolic Dishevelled-2 in U2OS cells; assay type: cell-based; settings: 1-7.5 μM, read-out: half maximal reduction of Dishevelled-2
Text: as §1
Dishevelled proteins (Dishevelled-1, 2, and 3 in mammalian cells) are intracellular molecules transducing Frizzled signaling.

in vivo = settings: NOD/SCID, mouse, po, 200 mg/kg
Experimental: Blood samples were obtained from vena cava following euthanasia by ketamin injection at predose and at 0.25, 0.5, 0.75, 1, 1.5, 4, 8, 12, 24 hr after drug administration. Blood samples were put into eppendorf tubes containing 10 μL of heparin (1000 U/mL), centrifuged at 1,200 g for 10 min. Plasma were collected and frozen at −20° C. until HPLC analysis.
The Calibration curve was linear from 0.2 ng/mL (lower limit of quantitation, LLOQ) to 300 ng/mL.
Blood samples were obtained from vena cava at predose and at 0.25, 0.5, 0.75, 1, 1.5, 4, 8, 12, 24 hr after drug administration. Plasma was collected by the centrifugation (1,200 g, 10 min) of blood with heparin (100 U/mL).

[1] = test system: LEF/TCF transcription factor reporter (TOPFlash); assay: TOPFlash reporter assay in HEK293 cells; assay type: cell-based; settings: Homo sapiens
Experimental: as §2
For the TOPFlash Luciferase assay the TOPFlash stable cells were seeded in 150 μL growing medium/well in 96-well plates at 100% confluency. Fifty microliters of conditioned medium containing the chemical compounds to be tested or DMSO were added to each well. After an 8 hr treatment, the cells were then washed once with PBS, and lysed with 80 μL MPER solution (Pierce, Rockford, Ill.). Thirty microliters of cell lysate were used for measuring luciferase activity in a 96-well plate reader (FluoStar Optima, BMG Labtech, Chicago, Ill.).
LEF/TCF transcription factor reporter (TOPFlash) assay is a general readout for canonical Wnt signaling pathways. […] A Renila luciferase plasmid was also generated to serve as an internal control.
The average TOPFlash reporter activity of Wnt3A plus DMSO treatment was set as 100%, and the relative reporter activity of Wnt3A plus the indicated concentration of niclosmide was calculated and plotted.
The compounds shown in Table 2 were purchased from Sigma-Aldrich (St. Louis, Mo.) or Chembridge (San Diego, Calif.). The activity of each of the compounds as a negative modulator of the Wnt/Frizzled signaling pathway was examined using the Top-flash assay, as described above.

Sequence of Frizzled1-GFP (Q08463 69-641): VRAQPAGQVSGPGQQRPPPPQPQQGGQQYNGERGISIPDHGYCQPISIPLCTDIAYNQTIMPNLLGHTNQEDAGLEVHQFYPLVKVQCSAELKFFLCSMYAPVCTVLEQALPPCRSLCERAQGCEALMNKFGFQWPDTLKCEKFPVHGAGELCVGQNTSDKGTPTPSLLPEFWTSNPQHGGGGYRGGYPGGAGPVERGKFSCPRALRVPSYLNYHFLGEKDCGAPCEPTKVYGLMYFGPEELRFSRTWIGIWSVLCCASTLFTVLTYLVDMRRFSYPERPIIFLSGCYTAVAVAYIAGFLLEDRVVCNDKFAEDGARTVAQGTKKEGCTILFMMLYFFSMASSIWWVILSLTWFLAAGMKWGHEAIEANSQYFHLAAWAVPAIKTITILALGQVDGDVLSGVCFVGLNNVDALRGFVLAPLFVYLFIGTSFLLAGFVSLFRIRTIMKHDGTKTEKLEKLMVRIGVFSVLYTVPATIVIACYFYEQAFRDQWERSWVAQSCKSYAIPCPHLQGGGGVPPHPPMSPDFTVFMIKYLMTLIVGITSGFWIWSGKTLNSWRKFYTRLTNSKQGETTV

## O=C(Nc1ccc([N+](=O)[O-])cc1Cl)c1cc(Cl)ccc1O [niclosamide]
β-catenin; 7.5 μM, cytosol
  Wnt3A-stimulated cytosolic β-catenin stabilization: prevented
β-catenin; 7.5 μM, membrane
  membrane-bound β-catenin levels: relatively unchanged
β-catenin; immunoblot, n=3
  concentration range of the inhibitory effect on β-catenin stabilization: 1 to 7.5 µM
β-catenin; immunoblot, n=3, read-out: half maximal inhibition of Wnt3A signaling (β-catenin stabilization)
  IC50: ~1000 nM
CRC119 tumor cells
  concentration with steep increase of annexin V-positive cells: 1 µM
Frizzled1-GFP
  concentration with significant increase in the number of internalized receptors: 1 to 2 µM
Dishevelled-2
  IC50: ~1000 nM
In vivo
  Cmax: 894 ng/mL
  Elimination rate (z-lambda): 0.217 h⁻¹
  Tmax: 0.25 h
  concentration at 1.5 hr: 77.6 ng/mL
  half-life: 3.2 h
[1]; Wnt3A conditioned medium, read-out: IC50 of inhibition of Wnt3A stimulated TOPFlash reporter activity
  IC50: 500 ± 50 nM
[1]; read-out: TopFlash assay: IC50
  IC50: < 1000 nM
